Key:
[1] = system: caspase-3 in 786-O cells; settings: 72 h, compounds at 20 μM
[2] = system: MCF10A cells; settings: high concentrations
[3] = system: 786-O cells
[4] = target: ACVR1 (Homo sapiens, UniProt Q04771); assay: biochemical; settings: read-out: %Ctrl @ 2000nM
[5] = target: BTK (Homo sapiens, UniProt Q06187); assay: biochemical; settings: read-out: %Ctrl @ 2000nM
[6] = target: CAMK2B (Homo sapiens, UniProt Q13554); assay: biochemical; settings: read-out: %Ctrl @ 2000nM
[7] = target: CAMK4 (Homo sapiens, UniProt Q16566); assay: biochemical; settings: read-out: %Ctrl @ 2000nM
[8] = target: CHEK2 (Homo sapiens, UniProt O96017); assay: biochemical; settings: read-out: %Ctrl @ 2000nM
[9] = target: EGFR (Homo sapiens, UniProt P00533); assay: biochemical; settings: read-out: %Ctrl @ 2000nM
[10] = target: EGFR(L747-E749del, A750P) (Homo sapiens, UniProt P00533, A750P/DEL747-749); assay: biochemical; settings: read-out: %Ctrl @ 2000nM
[11] = target: EPHA4 (Homo sapiens, UniProt P54764); assay: biochemical; settings: read-out: %Ctrl @ 2000nM
[12] = target: FGFR1 (Homo sapiens, UniProt P11362); assay: biochemical; settings: read-out: %Ctrl @ 2000nM
[13] = target: MEK2 (Homo sapiens, UniProt P36507); assay: biochemical; settings: read-out: %Ctrl @ 2000nM
[14] = target: MST1 (Homo sapiens, UniProt Q13043); assay: biochemical; settings: read-out: %Ctrl @ 2000nM
[15] = target: PAK3 (Homo sapiens, UniProt O75914); assay: biochemical; settings: read-out: %Ctrl @ 2000nM
[16] = target: PFTK1 (Homo sapiens, UniProt O94921); assay: biochemical; settings: read-out: %Ctrl @ 2000nM
[17] = target: PIK3C2B (Homo sapiens, UniProt O00750); assay: biochemical; settings: read-out: %Ctrl @ 2000nM
[18] = target: RAF1 (Homo sapiens, UniProt P04049); assay: biochemical; settings: read-out: %Ctrl @ 2000nM
[19] = target: RET(V804M) (Homo sapiens, UniProt P07949, V804M); assay: biochemical; settings: read-out: %Ctrl @ 2000nM
[20] = target: SRMS (Homo sapiens, UniProt Q9H3Y6); assay: biochemical; settings: read-out: %Ctrl @ 2000nM
[21] = target: STK16 (Homo sapiens, UniProt O75716); assay: biochemical; settings: read-out: %Ctrl @ 2000nM
[22] = target: TTK (Homo sapiens, UniProt P33981); assay: biochemical; settings: read-out: %Ctrl @ 2000nM
[23] = target: ZAK (Homo sapiens, UniProt Q9NYL2); assay: biochemical; settings: read-out: %Ctrl @ 2000nM

Chain of CAMK4 (Q16566 whole entry): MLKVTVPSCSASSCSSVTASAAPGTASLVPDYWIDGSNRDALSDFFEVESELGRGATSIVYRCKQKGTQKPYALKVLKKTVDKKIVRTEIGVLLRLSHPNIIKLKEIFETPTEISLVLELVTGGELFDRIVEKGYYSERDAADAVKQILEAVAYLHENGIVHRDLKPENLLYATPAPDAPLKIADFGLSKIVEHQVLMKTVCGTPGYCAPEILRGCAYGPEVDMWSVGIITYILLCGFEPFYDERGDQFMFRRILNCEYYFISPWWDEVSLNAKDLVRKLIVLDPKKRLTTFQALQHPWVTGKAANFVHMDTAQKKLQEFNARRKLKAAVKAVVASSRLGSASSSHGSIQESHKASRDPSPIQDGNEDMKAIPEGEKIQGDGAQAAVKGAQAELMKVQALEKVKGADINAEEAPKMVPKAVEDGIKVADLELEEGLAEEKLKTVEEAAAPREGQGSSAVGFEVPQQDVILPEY
Chain of BTK (Q06187 whole entry): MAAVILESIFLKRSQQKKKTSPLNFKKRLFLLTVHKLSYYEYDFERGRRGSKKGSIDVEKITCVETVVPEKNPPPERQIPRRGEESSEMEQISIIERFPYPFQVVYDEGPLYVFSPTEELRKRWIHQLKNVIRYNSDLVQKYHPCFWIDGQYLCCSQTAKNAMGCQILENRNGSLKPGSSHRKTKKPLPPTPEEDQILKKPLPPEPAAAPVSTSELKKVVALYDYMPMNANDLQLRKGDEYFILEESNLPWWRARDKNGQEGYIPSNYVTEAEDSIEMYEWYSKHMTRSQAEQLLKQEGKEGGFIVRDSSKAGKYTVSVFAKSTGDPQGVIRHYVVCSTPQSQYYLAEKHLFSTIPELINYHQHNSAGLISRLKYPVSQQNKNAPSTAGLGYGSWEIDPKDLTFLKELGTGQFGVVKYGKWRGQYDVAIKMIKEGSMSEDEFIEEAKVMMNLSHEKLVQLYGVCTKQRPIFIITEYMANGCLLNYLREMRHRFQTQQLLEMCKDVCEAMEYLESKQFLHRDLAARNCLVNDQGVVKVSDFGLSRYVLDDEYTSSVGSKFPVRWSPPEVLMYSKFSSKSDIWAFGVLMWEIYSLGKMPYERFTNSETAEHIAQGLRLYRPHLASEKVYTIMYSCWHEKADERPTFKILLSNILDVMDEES
Chain of STK16 (O75716 whole entry): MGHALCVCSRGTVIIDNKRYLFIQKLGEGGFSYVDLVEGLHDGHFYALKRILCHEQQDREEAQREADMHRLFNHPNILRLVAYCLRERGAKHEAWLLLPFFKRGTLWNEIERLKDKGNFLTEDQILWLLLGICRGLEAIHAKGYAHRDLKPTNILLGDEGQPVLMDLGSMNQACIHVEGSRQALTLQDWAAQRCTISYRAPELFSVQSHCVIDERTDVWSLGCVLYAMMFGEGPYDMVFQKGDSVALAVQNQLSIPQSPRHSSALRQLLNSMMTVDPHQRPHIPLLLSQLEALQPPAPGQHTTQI
Chain of CHEK2 (O96017 whole entry): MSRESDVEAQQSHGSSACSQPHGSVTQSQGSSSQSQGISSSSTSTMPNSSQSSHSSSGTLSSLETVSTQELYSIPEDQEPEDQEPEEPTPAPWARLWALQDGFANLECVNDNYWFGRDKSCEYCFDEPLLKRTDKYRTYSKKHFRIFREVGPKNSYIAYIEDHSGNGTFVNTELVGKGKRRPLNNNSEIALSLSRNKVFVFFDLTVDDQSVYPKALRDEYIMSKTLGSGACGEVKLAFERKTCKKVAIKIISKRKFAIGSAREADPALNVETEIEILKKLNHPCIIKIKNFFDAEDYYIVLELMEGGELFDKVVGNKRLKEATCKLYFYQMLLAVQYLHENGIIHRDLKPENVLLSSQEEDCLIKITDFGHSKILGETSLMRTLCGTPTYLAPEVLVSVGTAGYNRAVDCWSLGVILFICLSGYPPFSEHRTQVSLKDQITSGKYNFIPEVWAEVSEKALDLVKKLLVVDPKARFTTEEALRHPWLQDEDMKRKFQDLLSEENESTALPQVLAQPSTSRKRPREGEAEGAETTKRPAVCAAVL
Chain of ACVR1 (Q04771 21-509): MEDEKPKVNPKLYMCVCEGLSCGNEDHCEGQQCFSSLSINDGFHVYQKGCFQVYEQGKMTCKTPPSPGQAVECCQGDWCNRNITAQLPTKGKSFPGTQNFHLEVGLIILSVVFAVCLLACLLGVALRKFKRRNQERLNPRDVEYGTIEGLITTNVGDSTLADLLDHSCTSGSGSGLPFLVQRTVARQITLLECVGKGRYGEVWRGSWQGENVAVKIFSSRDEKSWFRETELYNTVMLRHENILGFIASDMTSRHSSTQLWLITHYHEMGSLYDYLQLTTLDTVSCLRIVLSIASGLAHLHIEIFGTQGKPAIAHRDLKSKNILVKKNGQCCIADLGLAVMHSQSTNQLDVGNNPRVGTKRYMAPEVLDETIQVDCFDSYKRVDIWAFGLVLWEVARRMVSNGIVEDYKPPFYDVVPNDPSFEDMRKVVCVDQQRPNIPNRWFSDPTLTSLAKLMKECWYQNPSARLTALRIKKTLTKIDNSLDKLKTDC
Chain of CAMK2B (Q13554 whole entry): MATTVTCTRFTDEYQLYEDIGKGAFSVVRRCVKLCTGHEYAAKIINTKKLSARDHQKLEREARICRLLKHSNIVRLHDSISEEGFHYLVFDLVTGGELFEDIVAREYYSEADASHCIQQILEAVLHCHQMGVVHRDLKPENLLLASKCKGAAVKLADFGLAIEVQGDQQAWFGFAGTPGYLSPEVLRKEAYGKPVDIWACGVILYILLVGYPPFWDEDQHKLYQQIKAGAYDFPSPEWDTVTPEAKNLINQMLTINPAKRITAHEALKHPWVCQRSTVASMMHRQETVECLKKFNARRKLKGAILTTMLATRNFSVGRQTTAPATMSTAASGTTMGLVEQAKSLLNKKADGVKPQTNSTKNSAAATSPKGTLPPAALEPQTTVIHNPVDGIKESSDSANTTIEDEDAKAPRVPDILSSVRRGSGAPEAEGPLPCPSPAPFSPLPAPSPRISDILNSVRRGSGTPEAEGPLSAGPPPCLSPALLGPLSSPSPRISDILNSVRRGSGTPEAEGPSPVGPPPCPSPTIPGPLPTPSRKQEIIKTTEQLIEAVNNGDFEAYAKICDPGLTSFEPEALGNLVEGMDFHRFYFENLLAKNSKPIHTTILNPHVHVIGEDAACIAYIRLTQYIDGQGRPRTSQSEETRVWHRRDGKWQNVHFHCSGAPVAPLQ
Chain of SRMS (Q9H3Y6 whole entry): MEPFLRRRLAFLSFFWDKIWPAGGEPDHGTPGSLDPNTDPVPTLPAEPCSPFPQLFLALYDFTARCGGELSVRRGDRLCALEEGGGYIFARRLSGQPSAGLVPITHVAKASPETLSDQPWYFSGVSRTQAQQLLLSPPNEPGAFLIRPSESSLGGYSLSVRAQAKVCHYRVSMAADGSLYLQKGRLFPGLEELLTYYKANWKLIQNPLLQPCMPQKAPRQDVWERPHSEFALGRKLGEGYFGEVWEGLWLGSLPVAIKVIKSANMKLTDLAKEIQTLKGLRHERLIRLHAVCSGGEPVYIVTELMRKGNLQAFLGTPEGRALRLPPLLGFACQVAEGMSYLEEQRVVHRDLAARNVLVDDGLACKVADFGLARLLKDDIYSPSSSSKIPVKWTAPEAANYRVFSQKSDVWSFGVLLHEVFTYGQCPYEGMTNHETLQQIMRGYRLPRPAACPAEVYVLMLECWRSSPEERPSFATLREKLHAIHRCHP
Chain of FGFR1 (P11362 22-822): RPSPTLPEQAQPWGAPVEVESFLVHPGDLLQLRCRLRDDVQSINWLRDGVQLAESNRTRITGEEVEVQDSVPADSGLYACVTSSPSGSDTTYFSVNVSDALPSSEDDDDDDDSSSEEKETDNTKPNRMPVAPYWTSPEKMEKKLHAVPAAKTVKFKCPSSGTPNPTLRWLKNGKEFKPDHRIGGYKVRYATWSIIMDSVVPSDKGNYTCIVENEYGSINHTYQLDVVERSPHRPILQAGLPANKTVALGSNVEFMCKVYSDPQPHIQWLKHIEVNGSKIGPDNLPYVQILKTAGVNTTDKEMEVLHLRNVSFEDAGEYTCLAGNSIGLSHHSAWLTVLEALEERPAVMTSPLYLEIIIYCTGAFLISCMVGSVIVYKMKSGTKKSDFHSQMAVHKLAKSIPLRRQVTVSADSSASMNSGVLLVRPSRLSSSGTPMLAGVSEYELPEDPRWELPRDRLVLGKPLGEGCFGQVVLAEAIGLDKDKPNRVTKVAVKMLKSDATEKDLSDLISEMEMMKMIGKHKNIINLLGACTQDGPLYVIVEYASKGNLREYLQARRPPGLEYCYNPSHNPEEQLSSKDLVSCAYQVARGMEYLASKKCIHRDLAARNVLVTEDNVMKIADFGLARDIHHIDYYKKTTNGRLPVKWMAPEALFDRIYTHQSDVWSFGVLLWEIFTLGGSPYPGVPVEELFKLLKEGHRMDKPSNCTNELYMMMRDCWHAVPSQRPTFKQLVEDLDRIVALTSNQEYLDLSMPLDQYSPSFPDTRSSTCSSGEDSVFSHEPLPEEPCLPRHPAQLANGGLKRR
Chain of EGFR(L747-E749del, A750P) (P00533 with tags, fused parts or gaps DEL747-749/A750P limits assumed): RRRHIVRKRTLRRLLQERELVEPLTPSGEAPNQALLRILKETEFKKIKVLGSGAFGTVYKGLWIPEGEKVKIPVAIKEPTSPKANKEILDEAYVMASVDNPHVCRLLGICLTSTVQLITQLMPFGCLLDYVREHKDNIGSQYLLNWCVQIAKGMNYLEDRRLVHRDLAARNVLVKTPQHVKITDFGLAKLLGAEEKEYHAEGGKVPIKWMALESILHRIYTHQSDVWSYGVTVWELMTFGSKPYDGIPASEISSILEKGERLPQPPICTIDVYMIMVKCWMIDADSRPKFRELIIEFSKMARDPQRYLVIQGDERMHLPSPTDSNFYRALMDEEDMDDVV

## CC(C)COC(=O)c1[nH]c2ccc(F)cc2c1-c1cn(CC2CCN(CCNS(=O)(=O)c3ccc(CC(C)C)cc3)CC2)nn1 [AB668, isobutyl 5-fluoro-3-(1-((1-(2-((4-isobutylphenyl)sulfonamido)ethyl)piperidin-4-yl)methyl)-1H-1,2,3-triazol-4-yl)-1H-indole-2-carboxylate]
[1]
  caspase-3 activation: induced caspase-3 activation
[2]
  cytotoxicity: no cytotoxicity
[3]
  NES: Asymmetric localization of PCP proteins: -1.441
  NES: G1/S Transition: -1.326
  NES: G2/M Checkpoints: -1.7
  NES: G2/M Transition: -1.306
  NES: Infection with Mycobacterium tuberculosis: 1.8732
  NES: Innate Immune System: 1.345
  NES: Keratan sulfate/keratin metabolism: 1.522
  NES: Mitotic G1 phase and G1/S transition: -1.351
  NES: Mitotic G2-G2/M phases: -1.306
  NES: Response of Mtb to phagocytosis: 1.92
  NES: TBC/RABGAPs: 1.83
  NES: p53-Independent G1/S DNA damage checkpoint: -1.606
  enrichmentScore: Asymmetric localization of PCP proteins: -0.3931
  enrichmentScore: G1/S Transition: -0.3116
  enrichmentScore: G2/M Checkpoints: -0.3959
  enrichmentScore: G2/M Transition: -0.2924
  enrichmentScore: Infection with Mycobacterium tuberculosis: 0.7066
  enrichmentScore: Innate Immune System: 0.2817
  enrichmentScore: Mitotic G2-G2/M phases: -0.2924
  enrichmentScore: Response of Mtb to phagocytosis: 0.737
  enrichmentScore: TBC/RABGAPs: 0.6519
[4]
  remaining activity at 2 µM: 100%
[5]
  remaining activity at 2 µM: 100%
[6]
  remaining activity at 2 µM: 96%
[7]
  remaining activity at 2 µM: 100%
[8]
  remaining activity at 2 µM: 100%
[9]
  remaining activity at 2 µM: 92%
[10]
  remaining activity at 2 µM: 90%
[11]
  remaining activity at 2 µM: 78%
[12]
  remaining activity at 2 µM: 81%
[13]
  remaining activity at 2 µM: 96%
[14]
  remaining activity at 2 µM: 97%
[15]
  remaining activity at 2 µM: 95%
[16]
  remaining activity at 2 µM: 84%
[17]
  remaining activity at 2 µM: 100%
[18]
  remaining activity at 2 µM: 100%
[19]
  remaining activity at 2 µM: 76%
[20]
  remaining activity at 2 µM: 93%
[21]
  remaining activity at 2 µM: 82%
[22]
  remaining activity at 2 µM: 85%
[23]
  remaining activity at 2 µM: 100%
